Results published in publication PMC9782297, “Integracides: Tetracyclic Triterpenoids from Fusarium sp.—Their 5-Lipoxygenase Inhibitory Potential and Structure–Activity Relation Using In Vitro and Molecular Docking Studies” (Life, 2022).

Molecular target: 5-LOX (5-lipoxygenase)
Test: 5-Lipoxygenase inhibitory assay
Format: biochemical
Details: conc. 0.001, 0.01, 1.0 and 10 µM; zileuton positive control; read-out: 5-LOX inhibition IC50
Description: Optical rotation was estimated using a 341LC Perkin-Elmer polarimeter (Perkin-Elmer, Waltham, MA, USA). UV and IR were assessed employing Shimadzu UV/VIS 1601 and IR-400 spectrophotometers (Shimadzu, Kyoto, Japan), respectively. Orbitrap LTQ (ThermoFinnigan, Bremen, Germany) and 850 INOVA BRUKER (Bruker BioSpin, Billerica, MA, USA) were utilized for HRESIMS and NMR measuring. The chromatographic investigation was achieved utilizing SiO260/Sephadex LH-20/RP-18, in addition to a 6-mL RP-18 LiChrolut extraction tube (Merck/Darmstadt/Germany).
IC50s were estimated by regression analysis (GraphPad-InStat 3, GraphPad Software, San Diego, CA, USA). The % 5-LOX inhibition of and IC50s are listed as mean-values ±SD. Statistical significance was analyzed among the samples by one-way-ANOVA and subsequently by Tukey–Kramer test (p < 0.005).

Row | SMILES | IC50 [nM]
1 | C=C(CCC(C)C1(O)CCC2C3=C(C(O)C(OC(C)=O)C21C)C1(C)CC(O)C(OC(C)=O)C(C)(C)C1CC3)C(C)C (stereo not drawn) [Compound 1, integracide L] | 3450
2 | C=C(CC[C@@H](C)[C@H]1CC=C2C3=C([C@@H](O)[C@H](OC(C)=O)[C@@]21C)[C@@]1(C)C[C@@H](O)[C@H](O)C(C)(C)[C@@H]1CC3)C(C)C [Compound 2, integracide B] | 3970
3 | C=C(CCC(C)C1CC=C2C3=C(C(O)C(OC(C)=O)C21C)C1(C)CC(O)C(OC(C)=O)C(C)(C)C1CC3)C(C)C (stereo not drawn) [Compound 3, integracide F] | 2760
4 | C=C(CCC(C)C1CC=C2C3=C(C(O)C(OC(C)=O)C21C)C1(C)CC(O)C(OC(=O)CCCCCCCCCO)C(C)(C)C1CC3)C(C)C (stereo not drawn) [Compound 4, integracide G] | 1180
5 | C=C(CCC(C)C1CC=C2C3=C(C(O)C(OC(C)=O)C21C)C1(C)CC(OC(C)=O)C(OC(C)=O)C(C)(C)C1CC3)C(C)C (stereo not drawn) [Compound 5, integracide H] | 1460
6 | C=C(CCC(C)C1CC=C2C3=C(C(O)C(OC(C)=O)C21C)C1(C)CC(O)C(OC(=O)c2ccc(O)cc2)C(C)(C)C1CC3)C(C)C (stereo not drawn) [Compound 6, integracide J] | 2010
